Laboratory results reported in patent US8211646B1, “Methods of treating ovarian cancer by modulating SnoN” (University of South Florida, priority 2008, dated 2012).

What was measured:
Format in all cases: cell-based
SnoN = test: Western analysis of SnoN protein levels
Procedure: (§1) Proteins were resolved on an 8%, 12%, or 15% SDS-PAGE gel (as appropriate) and electrophoretically transferred to polyvinyldifluoride (PVDF) membranes. After blocking with 5% (w/v) milk in TBST (Tris-Buffered Saline containing 0.1% Tween-20) for one hour at room temperature, membranes were incubated with primary antibodies (at appropriate dilution) overnight at 4° C., followed by extensive washing and incubation for 1 hour with the appropriate horseradish peroxidase-conjugated secondary antibodies (BioRad, Hercules, Calif.). Blots were washed extensively. A rabbit polyclonal EVI1 antibody was obtained (1:3000 dilution, St. Jude's Children's Hospital, Memphis, Tenn.). SnoN rabbit polyclonal (1:1000 dilution), PML, and p21 SMURF2 rabbit polyclonal (1:500 dilution), MRP1 mouse monoclonal (1:500 dilution) and GAPDH mouse monoclonal (1:250 dilution) antibodies were obtained from Santa Cruz Biotechnology (Santa Cruz, Calif.). TGFβRII rabbit polyclonal (1:1000 dilution) antibody was obtained from Strategic Diagnostics (Newark, Del.). Smad2/3 rabbit polyclonal (1:1000 dilution), Beclin-1 rabbit polyclonal (1:1000 dilution), AKT rabbit polyclonal (1:1000 dilution), TAK1 rabbit polyclonal (1:1000 dilution), PARP rabbit polyclonal (1:1000 dilution), Beclin-1 rabbit polyclonal (1:1000 dilution), caspase-3 rabbit polyclonal (1:1000) which detects the pro-caspase form, and ATG5 rabbit polyclonal (1:1000 dilution), LC3-II rabbit polyclonal (1:1000 dilution) antibodies were obtained from Cell Signaling Technology (Danvers, Mass.). The HSP27 mouse monoclonal (1:1000 dilution) antibody was obtained from Stressgen (Ann Arbor, Mich.). Blots were developed using chemiluminescence substrates (Amersham Piscataway, N.J. or BioRad, Hercules, Calif.). Monoclonal PAI-1 antibody was obtained from BD Pharmingen. PSMAD2, total SMAD2/3, p-ERK, p-AKT, and total AKT antibodies were obtained from Cell Signaling Technology. A monoclonal antibody against Arkadia was obtained from Abnova (Taiwan).
(§2) Densitometric analysis was performed using the HP Scanjet 5590 and the Image J program (Image Processing and Analysis in Java, NIH Image Software). Bands were selected and the intensity values were normalized to those for GAPDH. The values are presented as fold-changes relative to control siRNA treated cells.
The clinical inhibitors As2O3, geldanamycin (17-AAG) (dissolved in dimethylsulfoxide [DMSO]), and MG132 (dissolved in DMSO) were obtained from Sigma-Aldrich (St. Louis, Mo.), Fisher Scientific (Pittsburgh, Pa.), and Alexis Biochemicals (Farmingdale, N.Y.), respectively. N-acetyl-L-cysteine (NAC; dissolved in media) and Bortezomib (PS-341; dissolved in DMSO) were obtained from Fisher Scientific. 3-Methyladenine (3-MA; dissolved in media) was obtained from MP Biomedicals (Solon, Ohio). Tiron (4,5-Dihydroxy-1,3-benzenedisulfonic acid, dissolved in media) was obtained from Fisher Scientific. zVAD-fmk (dissolved in DMSO) and bafilomycin A (dissolved in DMSO) was obtained from Axxora LLC (San Diego, Calif.). Bovine catalase was obtained from Sigma-Aldrich. HBED and Mn TBAP was obtained from ENZO Life Sciences (Farmingdale, N.Y.). Ovarian cells were plated in 6-well plates at 250,000 cells per well and grown in complete medium. […] For control cells, DMSO (a final concentration of <0.5%) was added to compare appropriately to drugs dissolved in DMSO. After the appropriate incubation time (6 or 18 hours), cell lysates were collected, protein quantified, and SDS-PAGE/western analysis was performed. In addition, for selected studies, RNA was isolated, quantified, and used for qPCR analysis.

[1] = system: EVI1 forms (MDS1/EVI1, EVI1, EVI1^Del190-515)
Procedure: as §1, §2
(§3) The clinical inhibitors As2O3, geldanamycin (17-AAG) (dissolved in dimethylsulfoxide [DMSO]), and MG132 (dissolved in DMSO) were obtained from Sigma-Aldrich (St. Louis, Mo.), Fisher Scientific (Pittsburgh, Pa.), and Alexis Biochemicals (Farmingdale, N.Y.), respectively. N-acetyl-L-cysteine (NAC; dissolved in media) and Bortezomib (PS-341; dissolved in DMSO) were obtained from Fisher Scientific. 3-Methyladenine (3-MA; dissolved in media) was obtained from MP Biomedicals (Solon, Ohio). Tiron (4,5-Dihydroxy-1,3-benzenedisulfonic acid, dissolved in media) was obtained from Fisher Scientific. zVAD-fmk (dissolved in DMSO) and bafilomycin A (dissolved in DMSO) was obtained from Axxora LLC (San Diego, Calif.). Bovine catalase was obtained from Sigma-Aldrich. HBED and Mn TBAP was obtained from ENZO Life Sciences (Farmingdale, N.Y.). Ovarian cells were plated in 6-well plates at 250,000 cells per well and grown in complete medium. The following day, the cells were treated with 5 μM MG132, As2O3 (between 2-50 μM), 17-AAG (between 2-50 μM), NAC (Fisher Scientific, between 25 μM to 1 mM), Tiron (between 25 μM to 1 mM), 3-MA (0.1 mM to 10 mM), or zVAD-fmk (25 μM to 100 μM). For control cells, DMSO (a final concentration of <0.5%) was added to compare appropriately to drugs dissolved in DMSO. After the appropriate incubation time (6 or 18 hours), cell lysates were collected, protein quantified, and SDS-PAGE/western analysis was performed. In addition, for selected studies, RNA was isolated, quantified, and used for qPCR analysis.

[2] = system: TAK1, SMAD2/3, TGFβRII, AKT, phospho-SMAD2; test: Western analysis of other TGFβ signaling mediators
Procedure: as §1, §2, §3

ovarian cancer cells = test: Cell titer glo cell viability assay; conditions: 25 μM, 18 hour treatment, relative to control cells
Procedure: Measurement of Intracellular ATP Levels. T80, HEY, and SKOV3 ovarian cells were seeded in triplicate for each treatment group at 5000 cells per well into each well of a 96 well white-opaque plate. Following overnight cell attachment, cells were treated for 18 hours with appropriate doses of arsenic trioxide or geldanamycin (0 mM, 2 μM, 5 μM, 10 μM, 25 μM, and 50 μM). Following termination of the cell treatments, the media was removed from the wells and replaced with 100 μl of phosphate-buffered saline (PBS). The plate was equilibrated to room temperature, 100 μl of Cell-Titer Glo reagent (Promega, Madison, Wis.) was added, and mixed on a plate shaker for 2 minutes. The plate was further incubated for 10 minutes at room temperature prior to reading with a Biotek luminescence plate reader to obtain relative light unit (RLU) measurements. Empty wells (containing no cells) were utilized as a correction for background luminescence. All experiments were performed in triplicate.

cleaved PARP = test: Western analysis of PARP cleavage (early apoptosis marker); conditions: HEY, 18 hours
Procedure: as §1, §2, §3

[3] = system: LC3-I/LC3-II, autophagosomes; test: Autophagy: LC3 western, EGFP-LC3 fluorescence, TEM of autophagosomes; conditions: HEY, 18 hours
Procedure: as §1
HEY cells were seeded onto glass coverslips and allowed to adhere following overnight incubation. The cells were then transiently transfected with EGFP-LC3 (Addgene, Cambridge, Mass.) and allowed to recover for 24 hours. The cells were treated at the appropriate concentrations of As2O3 in the absence or presence of 3-MA (5 and 10 mM), for 18 hours. The cells were then fixed in 4% paraformaldehyde in PBS for 30 minutes at room temperature, washed twice in PBS, and blocked for 1 hour at room temperature in PBS containing 5% goat serum and 0.1% Triton X-100. The cells were counterstained with Hoescht nuclear stain, washed 3 times for 5 minutes in PBS, anti-Fade containing DAPI nuclear stain was then applied, and coverslips mounted onto glass slides and viewed under a Zeiss inverted fluorescence microscope (Moffitt Cancer Center Microscopy Core).
Autophagy induction was analyzed using electron microscopy. […] Cells were then fixed in 2.5% glutaraldehyde in 0.1M phosphate buffer overnight at 4° C. Following rinsing in buffer, cells were scraped from the culture flasks, washed, and then post-fixed in 1% osmium tetroxide in buffer. After dehydration in a graded series of acetone, the cells were embedded in Embed 812 epoxy resin. Thin sections (70 nm) were cut on an Ultramicrotome. The sections on the grids were stained with uranyl acetate and lead citrate. The sections were examined on a Transmission Electron Microscope (Morgagni 268D).

HSP27 = test: Western analysis of HSP27; conditions: HEY, 18 hours
Procedure: as §1, with “The HSP27 mouse monoclonal (1:1000 dilution) antibody was obtained from Stressgen (Ann Arbor, Mich.). Blots were developed using chemiluminescence substrates (Amersham Piscataway, N.J. or BioRad, Hercules, Calif.). Monoclonal PAI-1 antibody was obtained from BD Pharmingen. PSMAD2, total SMAD2/3, p-ERK, p-AKT, and total AKT antibodies were obtained from Cell Signaling Technology. A monoclonal antibody against Arkadia was obtained from Abnova (Taiwan).” left out
(§4) The clinical inhibitors As2O3, geldanamycin (17-AAG) (dissolved in dimethylsulfoxide [DMSO]), and MG132 (dissolved in DMSO) were obtained from Sigma-Aldrich (St. Louis, Mo.), Fisher Scientific (Pittsburgh, Pa.), and Alexis Biochemicals (Farmingdale, N.Y.), respectively. […] After the appropriate incubation time (6 or 18 hours), cell lysates were collected, protein quantified, and SDS-PAGE/western analysis was performed. In addition, for selected studies, RNA was isolated, quantified, and used for qPCR analysis.

SnoN RNA = test: qPCR of SnoN RNA levels in ovarian cell lines; parameters: reduction of basal SnoN RNA levels / effect on basal SnoN RNA levels: unit of the concentration uncertain; conditions: 50 (unit uncertain), 12 h post-treatment; OVCA429, HEY, T29, T80
Procedure: RNA was isolated using the RNeasy Mini Kit (Qiagen, Valencia, Calif.) from normal, benign, stage I-IV ovarian patient samples and quantitative PCR was performed. A one-step RT-PCR Taqman master mix from Applied Biosystems (Foster City, Calif.) and primers for genes in the 3q26.2 amplicon were obtained using Genebank sequences as well as from Assays on Demand (Hs00180524_m1 (SnoN/SkiL)), with the following primers and probe sets.
Primers/probe sequences for SnoN (Hs00180524_m1), TGFβRII (Hs00234253_m1), and LC3 (Hs00261291_m1) were obtained from Applied Biosystems (Assays by Design).
mRNA levels were determined using the One-Step-Plus Applied Biosystems Detection System or ABI PRISM 7700 Sequence Detection System using β-actin as a reference. PCR conditions were as follows: stage I: 48° C. for 30 min; stage II: 95° C. for 10 min; stage III: [40 cycles] 95° C. for 15 s followed by 60° C. for 1 min Using the correlative method, RNA-fold change in expression was calculated as Ct of gene—Ct of β-actin to generate ΔCt from which ΔCt of the normal sample was subtracted. These values were then converted to log2 values.
as §4, with “respectively. N-acetyl-L-cysteine (NAC; dissolved in media) and Bortezomib (PS-341; dissolved in DMSO) were obtained from Fisher Scientific. 3-Methyladenine (3-MA; dissolved in media) was obtained from MP Biomedicals (Solon, Ohio). Tiron (4,5-Dihydroxy-1,3-benzenedisulfonic acid, dissolved in media) was obtained from Fisher Scientific. zVAD-fmk (dissolved in DMSO) and bafilomycin A (dissolved in DMSO) was obtained from Axxora LLC (San Diego, Calif.).” for “respectively.”

[4] = HEY and OVCA429, 18 hours, increasing doses

## 17-allylaminogeldanamycin [17-AAG]
SnoN; [4]
  SnoN/SkiL protein levels: slight decrease
[1]; 5 μM 17-AAG, 18 hour
  MDS1/EVI1 and EVI1^Del190-515 protein: reduced
  wild type EVI1 protein: not dramatically affected
[1]; [4]
  protein levels of EVI1 forms: slight decrease
[2]; [4]
  TGFβRII, SMAD2/3, and AKT protein: more marked reductions
Ovarian cancer cells
  reduction of cell growth (cellular viability): 63%

## Cn1cnc(N)c2ncnc1-2 [3-MA, 3-Methyladenine]
SnoN; HEY, 18 hours
  SnoN levels in As2O3-treated cells with added inhibitor: not dramatically altered
Cleaved PARP
  PARP cleavage in As2O3-treated cells with added inhibitor: further increased
[3]
  LC3 levels (LC3-II/LC3-I) in As2O3-treated cells with added inhibitor: reduced
HSP27
  HSP27 levels in As2O3-treated cells with added inhibitor: reduced dramatically

## CO/C1=C\C(C)=C\[C@@H](C)[C@@H](O)[C@@H](C)C/C(C)=C/C=C/[C@H](OC)[C@@H]([C@@H](C)[C@@H](O)[C@H](C)[C@@]2(O)C[C@@H](O)[C@H](C)[C@@H](C(C)C)O2)OC1=O [Bafilomycin A1]
SnoN; HEY, 18 hours
  SnoN levels in As2O3-treated cells with added inhibitor: slightly reduced
Cleaved PARP
  PARP cleavage in As2O3-treated cells with added inhibitor: increased
[3]
  LC3 levels (LC3-II/LC3-I) in As2O3-treated cells with added inhibitor: increased

## O=c1cc(N2CCOCC2)oc2c(-c3ccccc3)cccc12 [LY294002]
SnoN RNA
  reduction of basal SnoN RNA levels: 50%

## CC(=O)N[C@@H](CS)C(=O)O [NAC, N-acetyl-L-cysteine]
SnoN; HEY, 18 hours
  SnoN expression in As2O3-treated cells with increasing doses of NAC: markedly reduced
[2]; HEY, 18 hours
  EVI1, TAK1, and TGFβRII protein expression in As2O3-treated cells with NAC: recovery
